Laboratory results taken from article PMC12684298, “The Parkinson's Disease Drug Tolcapone and Analogues are Potent Glycomimetic Lectin Inhibitors of Pseudomonas aeruginosa LecA” (Angewandte Chemie (International Ed. in English), 2025).
Values joined by “and” are separate entries in the source; they are usually repeats but may differ in a detail not shown here. Equal entries are not always repeated. Where two headings read alike, the source gives them in different places.

Key:
LecA [1] = biological target: T1, LecA (Pseudomonas aeruginosa, UniProt Q05097); details: previous hits; cited from earlier work
T1 construct: made in house; host or cells: E. coli BL21 (DE3), plasmid pET25pa11
T1 sequence (Q05097 whole entry): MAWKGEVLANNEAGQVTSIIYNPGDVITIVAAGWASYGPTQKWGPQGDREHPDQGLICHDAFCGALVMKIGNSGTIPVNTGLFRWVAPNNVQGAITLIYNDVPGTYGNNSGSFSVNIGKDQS

LecA [2] = biological target: T1, LecA; assay: biochemical; assay type: binding
Method: Therefore, we focused our attention on commercially available nitro‐catechols. Prominent derivatives are inhibitors of the enzyme catechol‐O‐methyltransferase (COMT) and approved drugs for the treatment of Parkinson's disease. Four commercial COMT inhibitors were thus evaluated in a previously reported competitive binding assay based on fluorescence polarisation (FP, Table 1, Figure 1).^[ [32] ^]
The competitive binding assay was performed in analogy to Joachim et al.^[2] 10 µL of a solution containing LecA (40 µM) and sulfo-Cy5-Gal (20 nM, synthesis described in Kuhaudomlarp, Siebs et al.^[5]) in TBS/Ca buffer (20 mM Tris, 147 mM NaCl, 2.6 mM KCl at pH 7.4 supplemented with 1 mM CaCl2) were distributed in into wells of a black 384-well microtiter plate (Greiner Bio-One, Germany, cat no 781900). Then, 10 µL of serial dilutions of compounds (3 mM to 1.5 µM, dilution factor 0.5) in TBS/Ca with 40% DMSO were added in technical triplicates. Final concentrations after mixing were the following: 1.5 mM – 0.73 µM compound, 20 µM LecA, 10 nM sulfo-Cy5-Gal and 20% DMSO. The plate was sealed (EASYseal, Greiner Bio-One, cat no 676001), briefly centrifuged and incubated at room temperature in the dark under shaking conditions. Fluorescence intensity was measured after 1 h and 4 h using a PheraStar FS plate reader (BMG Labtech GmbH, Germany) with spectral filters for excitation at 590 nm and emission at 675 nm and polarization was calculated after blank values of 20 µM LecA in TBS/Ca buffer with 20% DMSO were subtracted from the test compounds. The data were analysed using the four-parameter variable slope model of the MARS Data Analysis software. The top and bottom plateau were assigned based on the control compound methyl α-d-galactoside and the data was reanalysed with these fixed values. If not mentioned otherwise, the experiment was repeated at least three times for each compound and the average and standard deviation are given. In case Triton X-100 was used it was added to the TBS/Ca buffer before the assay.

LecA [3] = biological target: T1, LecA; assay: Library screening using the FP competitive binding assay (three concentrations); details: read-out: Activity [%] (% inhibition relative to 500 µM pNPGal)
Text: Next, we screened a library of catechols from F. Hoffmann‐La Roche, the developer of Tolcapone, in the competitive binding assay to establish a structure–activity relationship. To this end, two sets of compounds with a molecular cut‐off of 500 Da were chosen: a first set of 342 compounds contained derivatives of Tolcapone, while a second set of 3222 compounds comprised catechols covering a larger chemical space. […] Tests were run in a 384‐well‐plate format at three concentrations (first set at 125, 32, and 4 µM, second set at 100, 25, and 3 µM) in presence of 10% DMSO and 250 µM 2‐mercaptoethanol to prevent interference by a potential unspecific reactivity of electron‐rich catechols as established earlier.^[ [30] ^]
The screening followed the same assay by Joachim et al.^[2] as described above. Compounds in DMSO (1 µL with the appropriate concentration) were plated using a robot into black 384-well microtiter plates (Greiner Bio-One, Germany, cat no 781900) by the Roche compound handling facility at four replicates per concentration and compound. A mixture of LecA, sulfo-Cy5-Gal and 2-mercaptoethanol in TBS/Ca (20 mM Tris, 147 mM NaCl, 2.6 mM KCl at pH 7.4 supplemented with 1 mM CaCl2) with DMSO was added at HIPS. Final concentrations in both screening rounds were the following: 5 µM LecA, 250 µM 2-mercaptoethanol, 10 nM sulfo-Cy5-Gal and 10% DMSO. Final concentrations of the 342 compounds of the first screening round were 125 µM, 32 µM and 4 µM. The 3222 compounds of the second screening round were tested at final concentrations of 100 µM, 25 µM and 3 µM. The plate was sealed (EASYseal, Greiner Bio-One, cat no 676001), briefly centrifuged and incubated at room temperature in the dark under shaking conditions. Fluorescence intensities were measured after 1 h and 24 h using a PheraStar FS plate reader (BMG Labtech GmbH, Germany) with spectral filters for excitation at 590 nm and emission at 675 nm and polarization was calculated after blank values of 5 µM LecA in TBS/Ca buffer with 250 µM 2-mercaptoethanol and 10% DMSO were subtracted from the test compounds. The data were analysed using the MARS Data Analysis software. […] All stated values are the average including the standard deviation based on three replicates for 100 µM and four replicates in the case of compounds at 125 µM.

LecA [4] = biological target: T1, LecA; assay: Surface plasmon resonance (SPR) direct binding, steady-state affinity
Method: To confirm the affinity of Tolcapone toward LecA in an orthogonal assay, the compound was then evaluated in a direct binding experiment by surface plasmon resonance (SPR).
Using a BIACORE X100, LecA was immobilised on a CM7 chip by standard amine coupling at 25 °C as described previously.^[5] From a 200 mM solution of Tolcapone in 100% DMSO, a 10 mM solution in PBS (supplemented with 0.05% Tween20 and 100 µM CaCl2) was prepared. The final dilutions (0 – 2000 µM) were then prepared by dilution with running buffer (PBS supplemented with 0.05% Tween 20, 100 µM CaCl2 and 5% DMSO). Increasing concentrations of Tolcapone were injected onto the immobilised LecA in steady-state affinity studies (30 s association, 60 s dissociation, flow rate 30 µL/min). Data was corrected by subtraction of the reference channel (no immobilised LecA) and analysed with the BIACORE X100 evaluation software (version 2.0). The average binding affinity and standard deviation of three independent experiments is given.

[5] = one of the hydroxy groups; no reference given; cited from earlier work
LecA [6] = biological target: T1, LecA; assay: biochemical; assay type: binding; details: ITC
Method: Isothermal titration calorimetry was performed on a MicroCal PEAQ-ITC (Malvern Panalytical) at 25 °C and 750 rpm stirring. The cell was filled with LecA (75 - 111 µM) in TBS/Ca buffer (20 mM Tris, 147 mM NaCl, 2.6 mM KCl at pH 7.4 supplemented with 1 mM CaCl2) with 20% DMSO and titrated with ligand (0.75 mM or 1.5 mM, 19 injections) in the same buffer. Data were analysed using the one binding site model in the MicroCal PEAQ-ITC analysis software (Malvern Panalytical). The first injection of each titration was excluded and the baseline subtracted for the final figures. Three titration per compound were performed and the average as well as standard deviation are given.

LecA [7] = biological target: T1, LecA; assay: Ligand-observed 19F NMR binding and competitive displacement with pNPGal; details: for 19F NMR peak intensity [%]: 50 µM ligand
Method: The presence of two fluorine atoms in the high affinity ligand 33 enabled another orthogonal LecA binding experiment (Figure 5c). In analogy to Denavit et al.,^[ [34] ^] ligand‐observed ^19F NMR spectra of 50 µM 33 were recorded in absence and in presence of LecA (100 µM). […] Importantly, the ligand's fluorine signal was restored when pNPGal was added as competitor molecule, indicating the specific and reversible catechol – LecA interaction.
RO0412970 was mixed with trifluoroacetic acid (TFA) as internal standard in non-deuterated TBS/Ca (20 mM Tris, 147 mM NaCl, 2.6 mM KCl at pH 7.4 supplemented with 1 mM CaCl2) and 10% DMSO-d6. From this mixture, one sample with LecA and one without LecA (as control) were prepared. […] Directly after the addition, spectra of both samples were recorded and the data was analysed with MestReNova 14.2.0. The spectra were referenced to TFA (-75.6 ppm) and the peak intensity of RO412970 compared to the internal standard TFA was calculated.

[8] = IC50, extended dose-response analysis, 20% DMSO, no 2-mercaptoethanol, three experiments
[9] = IC50 in presence of 0.01% Triton X-100, FP assay, 0.01% Triton X-100, one replicate
[10] = IC50 in presence of 0.057% Triton X-100, FP assay, 0.057% Triton X-100, one replicate
[11] = individual replicate (Repl. 1-3)
[12] = 25 °C, 20% DMSO, average of three titrations

| Structure (SMILES) | inhibition at 100 µM (LecA [3]) | IC50 (LecA [2]; [8]) | IC50 (LecA [2]; [9]) | IC50 (LecA [2]; [10]) | N (sites) (LecA [6]; average of three titrations) | ΔG (LecA [6]; average of three titrations) | ΔH (LecA [6]; average of three titrations) | -TΔS (LecA [6]; [11]) | N (sites) (LecA [6]; [11]) | ΔG (LecA [6]; [11]) | ΔH (LecA [6]; [11]) | Kd (LecA [6]; [12]) | Kd (LecA [6]; [11]) | other results |
| --- | --- | --- | --- | --- | --- | --- | --- | --- | --- | --- | --- | --- | --- | --- |
| O=C(c1ccccc1)c1ccc(O)c(O)c1 [3,4‐dihydroxybenzophenone] |  |  |  |  |  |  |  |  |  |  |  |  |  | Kd (LecA [1]): 3460 ± 410 µM |
| Cc1ccc(C(=O)c2cc(O)c(O)c([N+](=O)[O-])c2)cc1 [compound 4, Tolcapone] | 43.9 ± 2.1% |  |  |  |  |  |  |  |  |  |  |  |  | IC50 (LecA [2]; IC50, LecA inhibition, competitive binding assay (FP), tested up to 1.5 mM, n ≥ 2): 257 ± 40 µM; Kd (LecA [4]): 181 ± 6 µM; pKa [5]: ~4.6 |
| Cc1ccc(C(=O)c2cc([N+](=O)[O-])c(O)c(O)c2Cl)cc1 [compound 15] | 96.7 ± 4% | 58 µM | 67 µM | 56 µM | 0.92 ± 0.05 and 0.922 | -6.74 ± 0.14 kcal/mol and -6.74 kcal/mol | -5.45 ± 0.359 kcal/mol and -5.45 kcal/mol | -0.837 kcal/mol and -1.84 kcal/mol and -1.22 kcal/mol | 0.947 and 0.957 and 0.862 | -6.6 kcal/mol and -6.88 kcal/mol and -6.74 kcal/mol | -5.76 kcal/mol and -5.04 kcal/mol and -5.52 kcal/mol | 12 µM | 15.1 µM and 9.3 µM and 11.5 µM |  |
| O=C(c1cc(O)c(O)c([N+](=O)[O-])c1)c1c(F)cccc1F [compound 33] |  | 94 µM | 81 µM | 91 µM | 0.82 ± 0.03 and 0.820 | -6.6 ± 0.096 kcal/mol and -6.6 kcal/mol | -5.83 ± 0.526 kcal/mol and -5.83 kcal/mol | -1.36 kcal/mol and -0.789 kcal/mol and -0.17 kcal/mol | 0.846 and 0.788 and 0.827 | -6.67 kcal/mol and -6.62 kcal/mol and -6.5 kcal/mol | -5.31 kcal/mol and -5.83 kcal/mol and -6.33 kcal/mol | 15 µM | 13.2 µM and 14.4 µM and 17.3 µM | 19F NMR peak intensity [%] (LecA [7]; 100 µM LecA, after pNPGal (1 mM)): 79%; 19F NMR peak intensity [%] (LecA [7]; 100 µM LecA, before pNPGal): 1%; 19F NMR peak intensity [%] (LecA [7]; no LecA, after pNPGal (1 mM), defined as 100%): 100%; 19F NMR peak intensity [%] (LecA [7]; no LecA, before pNPGal, relative to TFA standard): 106%; 19F NMR intensity ratio catechol/TFA (LecA [7]; LecA, after pNPGal): 0.2160; 19F NMR intensity ratio catechol/TFA (LecA [7]; LecA, before pNPGal): 0.0036; 19F NMR intensity ratio catechol/TFA (LecA [7]; no LecA, after pNPGal): 0.2752; 19F NMR intensity ratio catechol/TFA (LecA [7]; no LecA, before pNPGal): 0.2923 |
